Data published in patent publication US12440571B2, “Immune agonists” (SHENZHEN UNIVERSITY, priority 2020, dated 2025).
Like-named read-outs stand apart in the source and are kept apart here.

Legend:
Type in all cases: cell-based
black melanoma B16 cells = test: CCK8 growth inhibition, B16; conditions: Mus musculus, CCK8 method, read-out: IC50 of inhibitory activity on tumor cell growth, B16
[1] = system: human lymphoma Daudi B cells; test: CCK8 growth inhibition, Daudi B; conditions: Homo sapiens, Daudi, CCK8 method; read-out: IC50 of inhibitory activity on tumor cell growth, Daudi B
[2] = system: murine spleen lymphocytes; test: Cytokine stimulation of murine spleen lymphocytes, ELISA; conditions: Lymphocyte, mouse immune cells (spleen lymphocytes), 24 hrs, ELISA
Protocol: The stimulating effect of a series of GY compounds or drugs on murine spleen lymphocytes was detected by ELISA.
6-week-old Balb/c mice were sacrificed by cervical dislocation, spleens were taken under aseptic conditions. A 1 mL sterile syringe and a 200 mesh cell strainer were adopted to quickly grind and disperse the spleen into individual cells in 4 mL of a murine lymphocyte separation solution (Dakko's, 7211011). A resulting cell homogenate was transferred to a 15 mL centrifuge tube, then 1 mL of a RPMI 1640 medium (Hyclone, SH30809.01) was slowly added. Spleen lymphocytes were separated by a density gradient centrifugation method (800×g, 30 min), washed, red blood cells therein were lysed, such that a dispersed spleen lymphocyte suspension was obtained. Cells were counted by a hemocytometer, to calculate the cell concentration. A RPMI 1640 complete medium was adopted to adjust the cell suspension to a concentration of 1×10^6/ml/well, and the cells were then plated on a 24-well cell culture plate (Corning, 3524).
Murine spleen lymphocytes were stimulated according to the gradient concentrations of the series of GY compounds or drugs, and incubated in a 37° C., 5% carbon dioxide incubator for 24 hrs.
• (1) Coating: a Capture antibody (primary antibody, purchased from Invitrogen) was diluted with a 1×Coating Buffer (coating buffer, purchased from Invitrogen) to a recommended concentration, and 100 μL of a resulting diluted solution was added to each well of a 96-well microtiter plate, the plate was sealed with a sealing film at 4° C. overnight. • (2) Washing: a liquid in each well was discarded, then 300 μL of a PBST working solution was added to each well and kept for 1 min, thereafter, the liquid therein was discarded. The washing process was repeated 3 times. • (3) Blocking: 200 μL of a blocking solution was added to each well. The plate was sealed with a sealing film, and placed on a shaker and incubated at room temperature for 1 hr, then washed and patted to be dry. • (4) Sample incubation: a sample was collected and centrifuged to collect a supernatant. Standards, samples, negative controls, and blank controls were provided in the 96-well microtiter plate, and each concentration or sample were provided with 2 replicates. 100 μL of a standard or sample was added to each well, thereafter, the plate was sealed with a sealing film, incubated on a shaker at room temperature for 1 hr or overnight at 4° C., then washed and pated to be dry. • (5) Secondary antibody incubation: the detection antibody (secondary antibody, purchased from Invitrogen) was diluted to a recommended concentration with a dilution buffer, 100 μL of a secondary antibody was added to each well. After being sealed with a sealing film, the plate was incubated on a shaker at room temperature for 1 hr, then washed and patted to be dry. • (6) Avidin-HRP incubation: Avidin-HRP (horseradish peroxidase marker, purchased from Invitrogen) was diluted to the recommended concentration with a dilution buffer, 100 μL of Avidin-HRP was added to each well. After being sealed with a sealing film, the plate was placed on a shaker and incubated at room temperature for 30 mins, washed 5-7 times by the process of step 2), and patted to be dry. • (7) TMB color development: 100 μL of a TMB color development solution (purchased from Invitrogen) was added to each well, for carrying out reaction for 15 mins at room temperature in the dark. • (8) Stopping reaction: 50 μL of 1M H2SO4 solution was added to each well. • (9) Reading an absorbance value by a microplate reader: the OD value at 450 nm wavelength was read. A standard curve and a parameter nonlinear regression equation were drawn, and a sample concentration was calculated according to the obtained formula.

[3] = system: human leukemia K562 cells; test: CCK8 growth inhibition, K562; conditions: CCK8 method, read-out: IC50 of inhibitory activity on tumor cell growth, K562
[4] = system: human lymphoma Raji cells; test: CCK8 growth inhibition, Raji; conditions: Homo sapiens, Raji, CCK8 method; read-out: IC50 of inhibitory activity on tumor cell growth, Raji
HEK293T cells = test: CCK8 growth inhibition, HEK-293T; conditions: Homo sapiens, CCK8 method, read-out: IC50 of inhibitory activity on cell growth, HEK-293T
[5] = system: human leukemia HL-60 cells; test: CCK8 growth inhibition, HL60; conditions: Homo sapiens, HL-60, CCK8 method; read-out: IC50 of inhibitory activity on tumor cell growth, HL60
LLC = test: CCK8 growth inhibition, LLC; conditions: Lewis lung carcinoma; CCK8 method; read-out: IC50 of inhibitory activity on tumor cell growth, LLC
[6] = system: human colon cancer HCT-116 cells; test: CCK8 growth inhibition, HCT-116; conditions: CCK8 method, read-out: IC50 of inhibitory activity on tumor cell growth, HCT-116
A549 = test: CCK8 growth inhibition, A549; conditions: Homo sapiens, CCK8 method, read-out: IC50 of inhibitory activity on tumor cell growth, A549
[7] = system: murine leukemia WEHI-3 cells; test: CCK8 growth inhibition, WEHI-3; conditions: Mus musculus, CCK8 method, read-out: IC50 of inhibitory activity on tumor cell growth, WEHI-3
[8] = read-out: IFN-gamma EC50 of cytokine stimulating activity
[9] = read-out: IL-6 EC50 of cytokine stimulating activity
[10] = read-out: TNF-alpha EC50 of cytokine stimulating activity

IC50 (black melanoma B16 cells) [µM] | IC50 [1] [µM] | EC50 [2, 8] [µM] | EC50 [2, 9] [µM] | EC50 [2, 10] [µM] | IC50 [3] [µM] | IC50 [4] [µM] | IC50 [5] [µM] | IC50 [6] [µM] | IC50 (A549) [µM] | IC50 [7] [µM] | SMILES | IC50 (HEK293T cells) [µM] | IC50 (LLC) [µM]
34.1 | 8.73 | 8.3 | 0.314 | 0.914 | 14.6 | 10.6 | 9.75 | 15.7 | 16.8 | 5.31 | CCCCOc1nc(N)c2nc(O)n(Cc3cn(CCOCCOCCOCCNC(=S)N4CCCC(n5nc(-c6ccc(Oc7ccccc7)cc6)c6c(N)ncnc65)C4)nn3)c2n1 (stereo not shown) [GY112] | 13.8 | 18.8
– | – | 0.753 | 0.083 | 0.248 | 17.8 | – | 19.1 | 20.8 | 23.2 | – | CCCCOc1nc(N)c2nc(O)n(Cc3cn(CCOCCOCCOCCNC(=S)Nc4cc(Nc5nccc(-c6cn(C)c7ccccc67)n5)c(OC)cc4N(C)CCN(C)C)nn3)c2n1 [GY127] | 26 | 15.3
11.7 | 11.8 | 1.53 | 0.006 | 0.011 | – | 16.1 | – | – | – | – | CCCCOc1nc(N)c2nc(O)n(Cc3cn(CCCCN4CCN(CCCNC(=S)N5CCCC(n6nc(-c7ccc(Oc8ccccc8)cc7)c7c(N)ncnc76)C5)CC4)nn3)c2n1 (stereo not shown) [GY161] | – | –
